# Measured values reported in patent US20160340704A1, “METHOD OF MAKING A BENZYLISOQUINOLINE ALKALOID (BIA) METABOLITE, ENZYMES THEREFORE” (VALORBEC SOCIÉTÉ EN COMMANDITE, priority 2014, published 2016).
# Entries after “also recorded” stand apart in the source; their conditions may differ.
# B1: EX42: CYP719 from Argemone mexicana, B1NF19.1, SEQ ID NO: 321 (protein, listed as Argemone mexicana)
# chain: MEEKIMTNNSPWILTSSTTTTTTILLSLLFTIFIILRRNKSSSSKMVWPTGPKTLPIIGNMNILGGTALHVVLHNLAKTYGNVMTIWIGSWRPVIVVSDIDRAWEVLVNKSSDYSARDMPEITKLATADWKTISSSDSGPFWTNLRKGLQNVALSPQNLSSQSKFQERDIIKTIQNLKEEAKMNNGIVKPLDHLKKAMVRLISRLIYGQDFDNDEYVEEMHHTIEELIRVSGYARLAEAFYYAKYLPSHKKAVREVLQANQRVQNLVRPLLSLNSPTNTYLHFLRSQNYEDEVIIFAIFEAYLLGVDSTSSTTAWALAYLIREPNVQEKLYEELKNFTNDNDRKMVKFEDLNKLQYLQAVVKETMRMKPIAPLAIPHKACRETSLMGRKVNQGTRVMVNIYALHHNQNVWKEPYKFNPERFLQKNQDGVDGKAMEQSLLPFSAGMRICAGMELGKLQFSFALANLVNAFKWSCVSDGVFPDMSDQLGFVLLMKTPLEAGIVPRM
# B2: EX56: CYP719 from Chelidonium majus, SEQ ID NO: 335 (protein, listed as Chelidonium majus)
# chain: MLLILIMDFRNSRSNLNPAKMEELMSDPWIITATTLAVVILLTTILRRKSSSMKWPKGPKTLPIIGNMHLFGGTDLHVVLYNIAKVYGNVMTIWIGSWRPVIVISDIERAWEVLVNKSSDYSARDMPEITKLISSDWKTISTSDAGAFWTNLRKGLQNVALSPHNLASQFQFQESDIKKLIETIKEEAAVNNGIVKPLDHLKKAMVRLISRLVFGQDFDNDEYVEGMHHAIEELIRVSGYARLAEAFYYAKYLPSHKKAVRDVEEANRRVQKLVRPFLSLNPPTNTYLHFLRSQNYSEEVIIFAIFEAYLLGVDSTSSTTAWALAFLIREPNVQEKLYQELKNFTVKNGRDMLKVEDINKLPYLQATIKETMRMKPIAPLAIPHKACRDTSLKGSKIDKGTRVMVNIYALHHNEKIWKEPFKFMPERFLQTEGENGKAMEQSFLPFSAGMRICAGMELGKLQFNFALANLVNAFKWSCVADGVLPDMSDQLGFVLVMKTPLEARITSRC
# B3: EX67: CYP719 from Glaucium flavum, SEQ ID NO: 346 (protein, listed as Glaucium flavum)
# chain: MEMKSSVVFSYPAMEELFKSNPWVITGTTLAVLILMTTMFRKKSLSMKWPKGPKTLPIIGNMHLLGGTNLQVILHNMSKVYGNVMTIWIGSWRPVIVVSDIERAWEVLVNKSSDYSGRDMPEITKIISADWKTISTSDSGPHWTNLRKGLQNVALSPHNLAAQFQFQERDICKLIETLKEEAKLNNGIVKPLDHLKKATIRLISRLVFGQDFDNSKYVEDMHHAIEELIRVSGYARLADAFYYAKYLPSQKKAVRDVEEAQRRVQRLVRPFLSLNPPTNCYLHFLRSQNYSDEVIIFAIFEAYLLGVDSTSSTTAWALAFLVREPNVQEKLYQELKNFTAKNGREMLKVEDINKLPYLQAVIKETMRMKPIAPLAIPHKACRDTSLKGRKIDKGTQIMVNIYALHHNENVWKEPFKFMPERFLQTDQDVNGKAMDQSLLPFSAGMRICAGMELGKLQFSFSLANLLNTFQWSCVADGVLPDMSDQLGFVLLMKTPLEARITPRC
# B4: EX76: CYP719 from Nandina domestica, SEQ ID NO: 355 (protein, listed as Nandina domestica)
# chain: MEESFWIVSATIVVVFVIATMFRKSSSISSKTEWPAGPKKLPVIGNLHQLGGDVLHVVLANLAKVYGTVMTVWVGSWKPMIVISDIDRAWEVLVNKSSDYSGRAMPEITEIISAKGKTISTSDSGPHWSNLRKGLQNVALSPHNIAAQSRFQESDITKMIKTLKQEAASNNGIVQPLDHLKKSTVRLISRLIFGQDFDDDEYVEAMHLAVEELIRVSGYARLAEAFYYAKYLPSHKRAVSEVWEANRRVKRIVKPRLSANPPPNCYLHFLSSQDYSEEMIIFAIFEAYLLGVDSTSSTTAWALGFLIREPKVQERLYQELKNCAGENGLIKVEDINKLPYLQAVLKETMRMKPIAPLAIPHKAVRETSLAGNKVEPGTRVMVNLYAIHHNPKVWIDPHKFKPERFLQGEENGGGNLKLMEQSLLPFSAGMRTCAGMELGKLQFGFSLANLVNAFQWDCAKKGMFPDMSDLLGFVLLMKTPLQAKIVPRGSPSINGY
# B5: EX96: CYP719 from Sanguinaria canadensis, SEQ ID NO: 375 (protein, listed as Sanguinaria canadensis)
# chain: MEFEKIMMSNPWILAATTAVVFISITAIFFRRKSSSMEWPTGPKTLPIIGNMHLLGGTALHVVLHNFAKIYGNVMTIWIGSWRPVIVVSDIDRAWEVLVNKSSDYSARDMPEITKIISADWKTISTSDSGPFWTNLRKGLQNVALSPHNLAAQARFQERDISKMIETLKEEAALNNGIVKPLDHLKKATVRLISRLIYGQEFDNNKYVEDMHHAIEELIRVSGYARLAEAFYYAKYLPSHKKAVRDVEEANRRVKNLVRPFLSSNPPTNCYLHFLRTQNYPEEVIIFAIFEAYLLGVDSTSSTTAWALAFLVREPNVQEKLYQELKNFTTNNDRKMLKVEDINKLQYLQAVIKETMRMKPIAPLAIPHKACKETSLMGSKVDKGTRVMVNIYALHHNQKVWKEPYKFMPERFLETDNQDGNVGKAMEQSLLPFSAGMRICAGMELGKLQFTFSLANLVNAFKWSCVSDGVLPDMSDQLGFVLLMKNPLEARIVPRS
# B6: EX101: CYP719 from Stylophorum diphyllum, SEQ ID NO: 380 (protein, listed as Stylophorum diphyllum)
# chain: MESLIDFSNPAKMEELMSNPWIITAITLAVVIIMMTIFRRKSSSMKWPKGPKTLPIIGNMHLFGGTDLHVVLYNIAKVYGNVMTIWIGSWRPVIVISDIERAWEVLVNKSSDYSARDMPEITKLISSDWKTISTSDAGAFWTNLRKGLQNVALSPHNLASQFQFQESDIKKLIETIKEEGAVNNGIVKPLDHLKKAMVRLISRLIFGQDFDNDKYVEGMHHAIEELIRVSGYARLAEAFYYAKYLPSHKKAVRDVEEANRRVQKLVRPFLSLNPPTNTYLHFLRSQNYSEEVIIFAIFEAYLLGVDSTSSTTAWALAFLIREPNVQEKLYQELKNFTVKNGRDMLKVEDINKLPYLQATIKETMRMKPIAPLAIPHKACRDTSLMGSKIDKGTRVMVNIYALHHNEKIWKEPFKFMPERFLQTEGEVNGKAMEQSFLPFSAGMRICAGMELGKLQFNFALANLVNAFKWSCVADGVLPDMSDQLGFVLVMKTPLEARITPRC
# Experiments:
# [1] = Relative abundance of BIAs in culture supernatants and cell extracts; format: cell-based, Saccharomyces cerevisiae; settings: for fraction in which the BIA is mainly found (supernatant or cell extract): strains with heterologous enzymes
# Procedure: Whole cell substrate feeding assays were used to test the function of each enzyme block individually and in combinations. To prepare the cells for the feeding assays, a colony of S. cerevisiae was inoculated in YNB-DO-GLU and incubated for 24 hours. Cultures were diluted to an OD600 of 0.8 into 6 ml of fresh YNB-DO-GLU and incubated for an additional 7 hours. Cells were harvested by centrifugation at 2000×g for 2 min. Supernatants were decanted and cells were suspended in 2 ml of Tris-EDTA (10 mM Tris-HCl, 1 mM EDTA, pH 8), containing 10 μM of one of the following feeding substrates: (R,S)-norlaudanosoline, (S)-reticuline, (S)-scoulerine or (S)-stylopine. Cells were incubated for 16 hours then harvested by centrifugation at 15000×g for 1 min. For BIA extraction from cells, the cell pellet was suspended in 500 μl methanol with ˜50 μl acid-washed glass beads and vortexed for 30 min. Cell extracts were clarified by centrifugation at 15000×g for 1 min and used directly for LC-MS analysis.
# Detection of alkaloids in the sanguinarine biosynthetic pathway was performed by FT-MS using a 7T-LTQ FT ICR instrument (Thermo Scientific, Bremen, Germany). Alkaloids were separated by reverse phase HPLC (Perkin Elmer SERIES 200 Micropump, Norfolk, Conn.) using an Agilent Zorbax™ Rapid Resolution HT C18 2.1*30 mm, 1.8 micron column. Solvent A (0.1% acetic acid) and solvent B (100% acetonitrile) were used in a gradient elution to separate the metabolites of interest as follows: 0-1 min at 100% A, 1-6 min 0 to 95% B (linear gradient), 7-8 min 95% B, 8-8.2 min 100% A, followed by a 1 min equilibration at 100% A. Three microliters of either cell extract or supernatant fraction were loaded on the HPLC column run at a flow rate of 0.25 ml/min. Dilutions in methanol were performed to keep alkaloid concentrations within the range of standard curve values and avoid saturating FT signals. Following LC separation, metabolites were injected into the LTQ-FT-MS (ESI source in positive ion mode) using the following parameters: resolution, 100000; scanning range, 250 to 450 AMU; capillary voltage, 5 kV; source temperature, 350° C.; AGC target setting for full MS were set at 5×10^5 ions. Identification of alkaloids was done using retention time and exact mass (<2 ppm) of the monoisotopic mass of the protonated molecular ion [M+H]^+. LC-FT-MS data were processed using the freely available program Maven^56. When available authentic standards were used to confirm the identity of the BIA intermediates (using HPLC retention times and exact masses) and to quantify sanguinarine alkaloids. When unavailable, we assumed equal ionization efficiency between an intermediate and the closest available quantifiable alkaloid (m/z 302 and m/z=316: reticuline; cheilanthifoline: stylopine).
# To confirm functional expression of enzymes, plasmids expressing each of the three blocks were individually transformed into S. cerevisiae and cultures of the strains were supplemented with either (R,S)-norlaudanosoline, (S)-reticuline, (S)-scoulerine or (S)-stylopine. Functional expression was verified by detection of the expected end products. As negative controls, yeast strains lacking enzyme blocks were incubated with each of the pathway intermediate to evaluate substrate recovery and to assess the relative proportion recovered in cellular extracts versus culture supernatants.
# cheilanthifoline = assay: CYP719 Ring A closure of cheilanthifoline to stylopine in GC1333; format: cell-based, Saccharomyces cerevisiae
# Procedure: FIG. 11A-B: showing conversion of (S)-cheilanthifoline (FIG. 11A) or (S)-nandinine (FIG. 11B) to (S)-stylopine by purchased CYP719s. Plasmids harboring CYP719s were transformed into GC1333 containing an integrated PsCPR. Strains were incubated with the appropriate BIA overnight, and then total BIAs were extracted and total molar ratios were compared. PsSPSΔN was used as a control.
# The 10 CYP719s with 95% activity on Ring A of scoulerine and the 10 CYP719s with activity on Ring B of scoulerine were tested for activity on cheilanthifoline and nandinine, respectively, in order to generate a branched stylopine synthesis pathway. […] CYP719s PsCFS and EX101, capable of converting >98% of scoulerine to cheilanthifoline and nandinine, respectively, were incubated with scoulerine. After 16 h, cells were pelleted and the supernatant fraction was collected. The supernatant was then applied to fresh yeast strains in order to supplement them with either TE containing nandinine or cheilanthifoline as necessary.
Molecule,conversion of cheilanthifoline to stylopine (cheilanthifoline) [%],further results
"COc1cc2c(cc1O)C1Cc3ccc4c(c3CN1CC2)OCO4 (stereo not drawn) [Cheilanthifoline, cheilanthifoline]",,fraction in which the BIA is mainly found (supernatant or cell extract) ([1]; 16 hours): mainly found in the supernatant
c1cc2c(c3c1C[C@H]1c4cc5c(cc4CCN1C3)OCO5)OCO2 [(S)-stylopine],,fraction in which the BIA is mainly found (supernatant or cell extract) ([1]; 16 hours): predominantly found in the cell extract; also recorded: mostly found in the cellular extract fraction
"Oc1ccc(CC2NCCc3cc(O)c(O)cc32)cc1O (racemic) [(R,S)-norlaudanosoline]",,"share of fed BIA found in the cell extract after 16 hours of incubation ([1]; wild-type / negative control cells, 16 hours): 10%; share of fed BIA found in the cell extract, initially ([1]; wild-type cells, 0 hours): 3%"
C[N@@+]12CCc3cc4c(cc3[C@@H]1Cc1ccc3c(c1C2)OCO3)OCO4 [N-methylstylopine],,"share of BIA found in the culture supernatant ([1]; Block 3 feeding assay, 16 hours): Approximately 55%"
CN1Cc2c(ccc3c2OCO3)-c2ccc3cc4c(cc3c21)OCO4 [dihydrosanguinarine],,fraction in which the BIA is mainly found (supernatant or cell extract) ([1]; 16 hours): mostly found in the cellular extract fraction
B1,> 98,
B2,> 98,
B3,> 98,
B4,> 98,
B5,> 98,
B6,> 98,
